Experimental findings from patent EP1505064A1, “2-Aminopyrimidine derivatives” (Bayer HealthCare AG, priority 2003, dated 2005) are described below.

Structures can show the parent of a compound that is named as a salt.

In the assay the target is human H4 (Homo sapiens, UniProt Q9H3N8). Put plainly: Calcium mobilization in CHO cells transfected with human H4 (Assay 1). The settings on record: calcium mobilization induced by 100 nM histamine in CHO-H4 cells; compounds at purity of about 40 to 90%; read-out: Activity Class. It counts as cell-based. As for the experimental part: [Calcium Mobilization in CHO cells transfected with human H4] (Assay1)
Sequence of human H4 (Q9H3N8 whole entry, the tested form may be a part): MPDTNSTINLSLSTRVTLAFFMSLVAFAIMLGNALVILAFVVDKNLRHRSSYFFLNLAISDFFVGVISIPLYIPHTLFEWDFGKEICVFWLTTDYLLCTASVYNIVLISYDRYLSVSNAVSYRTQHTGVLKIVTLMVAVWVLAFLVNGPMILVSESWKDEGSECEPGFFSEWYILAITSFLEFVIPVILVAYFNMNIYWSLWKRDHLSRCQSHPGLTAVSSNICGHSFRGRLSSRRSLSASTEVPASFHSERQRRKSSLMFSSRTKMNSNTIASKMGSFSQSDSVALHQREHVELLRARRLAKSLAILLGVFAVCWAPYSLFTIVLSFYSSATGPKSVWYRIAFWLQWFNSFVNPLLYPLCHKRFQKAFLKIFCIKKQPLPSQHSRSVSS
A fusion construct consisting of the n-terminal part of H4 and the C-terminal part of the G protein Gα 6 was transfected into CHO cells containing the aequorin-controlled luciferase gene (CHOAQLuci cells). Recombinant clones showing aequorin luminescence after the addition of 1 µM histamine were isolated. Starting with three independent primary cell clones three sets of tertiary clones were generated by two successive rounds of limiting dilution. Analysis of the primary clones as well as each subcloning by limiting dilution was monitored by "clone-pool analysis" comparing H4-transfected to mock-transfected (expression vector without H4 receptor cDNA) clones.
CHO-H4 cells were seeded at 2 x 10^4 cells per well in Biocoat poly-D-Lysine 96 well black/clear plates (BECTON DICKINSON, Franklin Lakes, US) in D-MEM/F12 medium supplemented with 10% FCS and 400 µg/ml Geneticin (Invitrogen GIBCO, Carlsbad, US) and 2 mM butylrate for O/N. The medium was removed and cells were loaded with 1 µM Fluo-3 (Molecular Probes, Eugene, USA) in loading solution (0.1% BSA, 20mM HEPES Hank's Buffer, 1mM probinecid) for 1 h. The loading buffer was removed and exchanged for fresh loading buffer. Cells were pretreated with various concentrations of test compounds and subjected to calcium mobilization measurement induced by 100 nM histamine by using FDSS6000.
Assay results in Assay 1 are shown in Examples and tables of the Examples below. The data corresponds to the compounds as yielded by solid phase synthesis and thus to levels of purity of about 40 to 90%. For practical reasons, the compounds are grouped in four classes of activity as follows: A IC50 20nM < B IC50 100nM C < IC50 500nM D
Take `CN[C@H]1CCN(c2cc(-c3cccc([N+](=O)[O-])c3)nc(N)n2)C1` [Example 7, 4-[(3 S)-3-(methylamino)pyrrolidin-1-yl]-6-(3-nitrophenyl)pyrimidin-2-amine trihydrochloride]: the IC50 lay within 100 to 500 nM.

Consider `CNC1CCN(c2cc(-c3cccc(C#N)c3)nc(N)n2)C1` (stereo not drawn) [Example 2, 3-{2-Amino-6-[3-(methylamino)pyrrolidin-1-yl]pyrimidin-4-yl}benzonitrile trihydrochloride], for which the IC50 lay in the range of 20 to 100 nM.

On to `CNC1CCN(c2cc(-c3ccccc3)nc(N)n2)C1` (stereo not drawn) [Example 1, 4-[3-(Methylamino)pyrrolidin-1-yl]-6-phenylpyrimidin-2-amine trihydrochloride], for which the IC50 was < 20 nM.

Take `Nc1nc(-c2ccccc2)cc(N2CCC(N)C2)n1` (stereo not drawn) [Example 3, 4-(3-aminopyrrolidin-1-yl)-6-phenylpyrimidin-2-amine trihydrochloride]: the IC50 fell in the range of 20 to 100 nM.

In the case of `CN[C@H]1CCN(c2cc(-c3ccccc3)nc(N)n2)C1` [Example 8, 4-[(3S)-3-(methylamino)pyrrolidin-1-yl]-6-phenylpyrimidin-2-amine trihydrochloride], the IC50 lay within 20 to 100 nM.

`CN[C@@H]1CCN(c2cc(-c3cccc([N+](=O)[O-])c3)nc(N)n2)C1` [Example 6, 4-[(3R)-3-(methylamino)pyrrolidin-1-yl]-6-(3-nitrophenyl)pyrimidin-2-amine trihydrochloride]: the IC50 was < 20 nM.
